Legend:
[1] = system: S. cerevisiae; conditions: cited from earlier work
[2] = system: S. cerevisiae; assay: Fermentation of glucose solution with model inhibitors (cinnamaldehyde, vanillin), with or without cysteine or glycine detoxification; assay type: cell-based, Saccharomyces cerevisiae; conditions: for detoxification of cinnamaldehyde in glucose solution (fermentation): 2.5 mM cinnamaldehyde
Description: (§1) Batch fermentation was carried out in 125 mL serum bottles containing 50 mL broths (untreated or detoxified hydrolysates, untreated or detoxified cinnamaldehyde sugar solution) without any additional nutrient supplement. All the fermentation broths were adjusted to pH 6 with NaOH or H2SO4 and sterilized by passing 0.2 μm sterile filters. After inoculation, the serum bottle was sealed with rubber stopper and aluminum seal, and equipped with cannulas for CO2 release. All fermentation experiments were incubated at 30° C., spun at 150 rpm in a shaker (E24, New Brunswick Scientific). Aliquots of samples were withdrawn at 0, 1, 3, 6, 9, 12, 24, 36 and 48 hours for the time course analysis of both starting material and products. Fermentation was carried out in duplicate. The volumetric ethanol productivity and initial consumption rate of glucose (RG) and mannose (RM) was calculated based on the sugar consumed in the first 6 h of fermentation as described previously (Cao, D. X., Tu, M. B., Xie, R., Li, J., Wu, Y. N., Adhikari, S. 2014. Inhibitory Activity of Carbonyl Compounds on Alcoholic Fermentation by Saccharomyces cerevisiae. Journal of Agricultural and Food Chemistry, 62(4), 918-926).
Preparation of the lignocellulosic biomass and the treatment thereof was performed as described in Example 1. After detoxification, the detoxified hydrolysates were cooled to room temperature and then readjusted to pH 6.0 if needed. Similarly, for the model compound (cinnamaldehyde) detoxification, glucose (˜20 g/L) was mixed with 2.5 mM cinnamaldehyde, and then treated with 5 mM cysteine or glycine at 60° C. for 2 hours prior to fermentation.
To ascertain the potential reaction mechanism in amino acids detoxification of biomass hydrolysates, cinnamaldehyde was detoxified in glucose solution with cysteine and glycine.

[3] = system: S. cerevisiae; assay: Batch fermentation of amino acid detoxified loblolly pine hydrolysates by Baker yeast; assay type: cell-based, Saccharomyces cerevisiae; conditions: for CEtOH, ethanol final concentration at 48 h / QEtOH, volumetric ethanol productivity in the first 6 h / RG, glucose consumption rate in the first 6 h / RM, mannose consumption rate in the first 6 h / YEtOH, ethanol yield from total glucose and mannose at 48 h: hydrolysates detoxified with amino acid 0.2% w/v
Text: Loblolly pine (Pinus taeda) wood chips (1.0×1.0 cm, L×W) were collected by Forest Products Laboratory at Auburn University, located in Auburn, Ala. Dilute acid pretreatment was used to produce biomass hydrolysates in a 4.0 L Parr batch reactor (Parr Instrument Co., Moline, Ill.) as previously described (Lai, C. H., Tu, M. B., Li, M., Yu, S. Y. 2014. Remarkable solvent and extractable lignin effects on enzymatic digestibility of organosolv pretreated hardwood. Bioresource Technology, 156, 92-98). Briefly, wood chips (400 grams, dry weight) were soaked in 1% (w/w) sulfuric acid overnight (7:1 liquor/solid ratio) prior to the pretreatment, and then loaded into a reactor and treated at 170° C. for 60 minutes.
To achieve higher ethanol titer in fermentation, loblolly pine hydrolysates were concentrated to approximately one-third of its original volume using a rotary evaporator (IKA RV10 basic) at 40° C. and 60 rotations per minute (rpm). The hydrolysates were first adjusted to pH 4.0 before evaporation. After the concentration, the sugar contents of the hydrolysates were analyzed by HPLC.
[…] The detoxification experiments were performed in a 250 mL flask and placed in a temperature-controlled water batch.
Baker yeast (Fleischmann's), S. cerevisiae, was used for all the fermentation experiments in this study. The yeast was maintained on YDP medium containing (g/L): 20 glucose, 20 peptone, 10 yeast extract and 20 agar. Isolated colony was grown in YDP liquid medium overnight and harvested as fermentation inoculum. The yeast concentration was measured using an UV-vis spectrophotometer. Inoculum of 2.0 g/L was used for all fermentation experiments.
as §1
Ethanol, acetic acid, levulinic acid, formic acid, furfural and HMF were analyzed using an Aminex HPX-87H column (300×7.8 mm) with a refractive index detector. The elution conditions were column temperature of 45° C. and flow rate of 0.6 ml/min with 5.0 mM H2SO4 as the mobile phase in a 60 min isocratic run.

[4] = detoxification at 50° C., pH 6.0, 2 hours
[5] = detoxification at 80° C., pH 6.0, 2 hours
[6] = detoxification at pH 8.0, 60° C., 2 hours
[7] = pH 6.0, 60° C., 2 hours, listed as glycine
[8] = glucose ~20 g/L, 5 mM amino acid, 60° C., 2 hours
[9] = pH 6.0, 60° C., 2 hours, listed as cysteine
[10] = pH 6.0, 60° C., 2 hours detoxification

For `CC(=O)O` [acetic acid], the “increase of final ethanol yield in S. cerevisiae fermentation” value ([1]; 9 g/L at pH 5) is given as 16%.

In the case of `O=Cc1ccc(CO)o1` [HMF, hydroxymethylfurfural], the “effect on ethanol production by S. cerevisiae” value ([1]; addition of 25 mM (3.16 g/L)) is listed as “did not affect the ethanol production”.

In the case of `O=CC=Cc1ccccc1` [cinnamaldehyde, reference compound], the “inhibition of glucose fermentation” value ([2]; 2.5 mM inhibitor in glucose solution, preliminary results) is reported as “inhibited glucose fermentation significantly”.

Molecule `NCC(=O)O` [Glycine, glycine] has an ethanol productivity [3, 4] of 0.24 g/L/h, a final ethanol concentration [3, 4] of 1.87 g/L and a final ethanol concentration ([3]; detoxification at 70 and 80° C., pH 6.0, 2 hours) of 23.00 g/L. For the same molecule, the ethanol productivity ([3]; detoxification at 70° C., pH 6.0, 2 hours) was 1.08 g/L/h, the volumetric ethanol productivity [3, 5] was 1.33 g/L/h and the “fermentability of detoxified biomass hydrolysates” value ([3]; detoxification at pH 2.0 and 4.0, 60° C., 2 hours) was “not fermentable”. The “fermentability of detoxified hydrolysates” value ([3]; detoxification at pH 2.0 and 4.0, 80° C.) was “still not fermentable”, the ethanol productivity [3, 6] was 0.87 g/L/h and the final ethanol concentration [3, 6] was 23.77 g/L. The “CEtOH, ethanol final concentration at 48 h” value (shortened to “CEtOH … at 48 h”) ([3]; pH 6.0, 60° C., 2 hours) was 8.58 ± 0.27 g/L, the “QEtOH, volumetric ethanol productivity in the first 6 h” value (shortened to “QEtOH, volumetric ethanol productivity”) ([3]; pH 6.0, 60° C., 2 hours) was 0.42 ± 0.01 g/L/h and the “RG, glucose consumption rate in the first 6 h” value (“RG, glucose consumption rate” below) ([3]; pH 6.0, 60° C., 2 hours) was 0.39 ± 0.01 g/L/h. The “RM, mannose consumption rate in the first 6 h” value (from here on “RM, mannose consumption rate”) ([3]; pH 6.0, 60° C., 2 hours) was 0.50 ± 0.05 g/L/h, the “YEtOH, ethanol yield from total glucose and mannose at 48 h” value (shortened to “YEtOH, ethanol yield”) ([3]; pH 6.0, 60° C., 2 hours) was 0.16 ± 0.01 g/g and the “CEtOH … at 48 h” value [3, 7] was 8.58 g/L. For the same molecule, the “QEtOH, volumetric ethanol productivity” value [3, 7] was 0.42 g/L/h, the “YEtOH, ethanol yield” value [3, 7] was 0.16 g/g and the “detoxification of cinnamaldehyde in glucose solution (fermentation)” value (“detoxification of cinnamaldehyde” below) ([2]; glucose solution, detoxified at 80° C.) was “became fermentable”. The “detoxification of cinnamaldehyde” value [2, 8] was “did not detoxify the cinnamaldehyde”.

With `COc1cc(C=O)ccc1O` [vanillin, reference compound] the “inhibition of glucose fermentation (final ethanol concentration and yield)” value ([2]; 10 mM inhibitor in glucose solution, preliminary results) was “did not inhibit the final ethanol concentration and yield”.

For `N[C@@H](CS)C(=O)O` [Cysteine, cysteine], the “increase of volumetric ethanol productivity when pH was increased from 2 and 4 to 6” value ([3]; 60° C., 2 hours) was 92%, the final ethanol yield ([3]; detoxification at 20, 40, 60 and 80° C. (approximately the same), pH 6.0) was ~0.42 g/g and the final ethanol concentration ([3]; detoxification at 20, 40, 60 and 80° C. (the same), pH 6.0) was “about 23.34 g/L”. For the same molecule, the volumetric ethanol productivity ([3]; detoxification at 20° C., pH 6.0, 2 hours) was 0.83 g/L/h, the volumetric ethanol productivity ([3]; detoxification at 40° C., pH 6.0, 2 hours) was 1.19 g/L/h and the volumetric ethanol productivity [3, 5] was 1.90 g/L/h. For the same molecule, the final ethanol concentration ([3]; detoxification at pH 2.0, 4.0 and 6.0 (the same), 60° C.) was 23.56 g/L, the volumetric ethanol productivity ([3]; detoxification at pH 2 and 4, 60° C., 2 hours) was 0.92 g/L/h and the “CEtOH … at 48 h” value ([3]; pH 6.0, 60° C., 2 hours) was 23.14 ± 0.10 g/L. For the same molecule, the “QEtOH, volumetric ethanol productivity” value ([3]; pH 6.0, 60° C., 2 hours) was 1.77 ± 0.03 g/L/h, the “RG, glucose consumption rate” value ([3]; pH 6.0, 60° C., 2 hours) was 2.10 ± 0.04 g/L/h and the “RM, mannose consumption rate” value ([3]; pH 6.0, 60° C., 2 hours) was 2.16 ± 0.12 g/L/h. The “YEtOH, ethanol yield” value ([3]; pH 6.0, 60° C., 2 hours) was 0.42 ± 0.00 g/g, the “CEtOH … at 48 h” value [3, 9] was 23.14 g/L and the “QEtOH, volumetric ethanol productivity” value [3, 9] was 1.77 g/L/h. For the same molecule, the “RG, glucose consumption rate” value [3, 9] was 2.10 g/L/h, the “RM, mannose consumption rate” value [3, 9] was 2.16 g/L/h and the “YEtOH, ethanol yield” value [3, 9] was 0.42 g/g. For the same molecule, the “ethanol productivity higher than positive sugar control (1.39 g/L/h)” value [3, 10] was 27%, the “improvement of mannose consumption rate compared to the positive sugar control” value [3, 10] was 43% and the “increase of volumetric ethanol productivity when temperature was changed from 20 to 40, 60, and 80° C.” value ([3]; pH 6.0, 2 hours) was 43-130%. For the same molecule, the “detoxification of cinnamaldehyde” value [2, 8] was “detoxified cinnamaldehyde very effectively”.
